In PubChem BioAssay (NCI):
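These data come from cells grown in 96-well plates and exposed to compound for 48 hours at five concentrations. TGI is the concentration that stops growth completely.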

Key:
Experiment in all cases: NCI-60 cell line screen, 48 h
MDA-N = system: MDA-N
SK-OV-3 ovarian = system: SK-OV-3 ovarian
IGROV1 ovarian = system: IGROV1 ovarian
SN12C renal = system: SN12C renal
SF-295 CNS = system: SF-295 CNS
HCT-116 colon = system: HCT-116 colon
SF-539 CNS = system: SF-539 CNS
ACHN renal = system: ACHN renal
SNB-19 CNS = system: SNB-19 CNS
SK-MEL-28 melanoma = system: SK-MEL-28 melanoma
DU-145 prostate = system: DU-145 prostate
MCF7 breast = system: MCF7 breast
HL-60(TB) leukemia = system: HL-60(TB) leukemia
HT29 colon = system: HT29 colon
NCI-H460 lung = system: NCI-H460 lung
SW-620 colon = system: SW-620 colon
PC-3 prostate = system: PC-3 prostate
HOP-92 NSCLC = system: HOP-92 NSCLC
SNB-75 CNS = system: SNB-75 CNS
A498 renal = system: A498 renal

| SMILES | TGI (MDA-N) [µM] | TGI (SK-OV-3 ovarian) [µM] | TGI (IGROV1 ovarian) [µM] | TGI (SN12C renal) [µM] | TGI (SF-295 CNS) [µM] | TGI (HCT-116 colon) [µM] | TGI (SF-539 CNS) [µM] | TGI (ACHN renal) [µM] | TGI (SNB-19 CNS) [µM] | TGI (SK-MEL-28 melanoma) [µM] | TGI (DU-145 prostate) [µM] | TGI (MCF7 breast) [µM] | TGI (HL-60(TB) leukemia) [µM] | TGI (HT29 colon) [µM] | TGI (NCI-H460 lung) [µM] | TGI (SW-620 colon) [µM] | TGI (PC-3 prostate) [µM] | TGI (HOP-92 NSCLC) [µM] | TGI (SNB-75 CNS) [µM] | TGI (A498 renal) [µM] |
| --- | --- | --- | --- | --- | --- | --- | --- | --- | --- | --- | --- | --- | --- | --- | --- | --- | --- | --- | --- | --- |
| O=c1oc2c/c(=C\c3ccccn3)c(=O)c3cccc1c3-2 | > 100 | > 100 | > 100 | > 100 | > 100 | > 100 | 57.4 | > 100 | > 100 | > 100 | > 100 | > 100 | > 100 | > 100 | > 100 | > 100 | > 100 | > 100 |  |  |
| Cn1ccoc1=Nc1ccc(Cl)c(Cl)c1 | > 10 | > 10 | > 10 | > 10 | > 10 | > 10 | > 10 | > 10 | > 10 | > 10 | > 10 | > 10 |  | > 10 | > 10 | > 10 | > 10 | > 10 | > 10 | > 10 |
| OCCCCCCCCCCCOc1ccc(C2OCC3(CC=CCC3)CO2)cc1 (configuration not stated) | 32 | 37 | 33 | 36.8 | 34.7 | 29.3 | 45.6 | 33.3 | 43.5 | 42.4 | 32.6 | 19.6 | 88.7 | 14.8 | 36.5 | 39.1 | 22.8 | 32.8 | 28.2 |  |
| CNN1C(=O)c2c(C)c(C)c(C#N)c(N)c2C1=O | > 100 |  | > 100 | > 100 | > 100 | > 100 | > 100 | > 100 | > 100 | > 100 | > 100 | > 100 | > 100 |  | > 100 | > 100 | > 100 | > 100 | > 100 |  |
| N#C/C(C(=O)Nc1ccc(Cl)cc1)=C(/N)N1CCOCC1 | > 100 | > 100 | > 100 | > 100 | > 100 | > 100 | > 100 | > 100 | > 100 | > 100 | > 100 | > 100 |  | > 100 | > 100 | > 100 | > 100 | > 100 | > 100 | > 100 |
| O=c1c2cc(S(=O)(=O)Nc3ccc(Cl)cc3Cl)ccc2ncn1NS(=O)(=O)c1cccc2ccccc12 | > 100 | > 100 | > 100 | > 100 | > 100 | > 100 | > 100 | > 100 | > 100 | > 100 | > 100 | > 100 | 37.5 | > 100 | > 100 | > 100 | > 100 | 81.4 | > 100 |  |
| CCCCCCC1CC(=O)C1(Cl)Cl (configuration not stated) | 85 | > 100 | 61.8 | 98.1 | > 100 | 30.4 | > 100 | 35.8 | > 100 |  | 92.8 | 63.7 | 44.1 | 66.8 |  | > 100 | > 100 |  | 36 |  |
| C=C1CC(C)(COc2ccc3c(C)cc(=O)oc3c2)OC1=O (configuration not stated) | 8.29 | 15.1 | 8.98 | 16.8 | 16.3 | 4.72 | 4.59 | 7.37 | 28.4 | 9.02 | 8.96 | 2.39 | 3.94 | 4.5 | 20.8 | 3.09 | 13.5 | 3.25 | 16.3 |  |
| O=c1c2ccccc2nc2sc(/N=C/C=C/c3ccccc3)nn12 | > 100 | > 100 | > 100 | > 100 | > 100 | > 100 | > 100 | > 100 | > 100 | > 100 | > 100 | > 100 |  | > 100 | > 100 | > 100 | > 100 | > 100 | > 100 | > 100 |
| C=C(CO)[C@H]1Oc2ccc(C(C)=O)cc2[C@@H]1O | 56.5 | > 100 | > 100 | > 100 | > 100 | > 100 | > 100 | > 100 | > 100 | > 100 | > 100 | > 100 | > 100 | > 100 | > 100 | > 100 | > 100 |  | > 100 | > 100 |
| COC(=O)c1ccc(/C=C2\Oc3cc(O)ccc3C2=O)cc1 | > 100 | > 100 | > 100 | > 100 | > 100 | > 100 | > 100 | > 100 | > 100 | > 100 | > 100 | > 100 | > 100 |  | > 100 | > 100 | > 100 |  | > 100 |  |
| NNc1ncc2c(n1)-c1ccccc1OC2 | > 100 | > 100 | > 100 | > 100 | > 100 | > 100 | > 100 | > 100 | > 100 | > 100 | > 100 | > 100 | 45.8 | > 100 | > 100 | > 100 | > 100 | > 100 | > 100 |  |
| COC(=O)N/N=C(\c1ccccc1)c1ccc(OC)cc1 | > 100 | > 100 | > 100 | > 100 |  | > 100 | > 100 |  | > 100 | > 100 | > 100 | > 100 | > 100 | > 100 | > 100 | > 100 | > 100 |  | > 100 | > 100 |
| O=C(NCCCNCCCCNCCCNC(=O)c1cc(-c2ccccc2)nc2ccccc12)c1cc(-c2ccccc2)nc2ccccc12 | 3.17 | 4.85 | 5.35 | 7.88 | 14.4 | > 100 | 3.62 | 42.3 |  | 3.3 | > 59.1 | 3.78 | 3.8 | 3.57 | 19.7 | 13.1 | 4.33 | 4.36 |  | 47.5 |
| Cc1cc2cc3ccccc3cc2c(=O)[nH]1 | > 10 | > 10 | > 10 |  | > 10 | > 10 | > 10 | > 10 | > 10 |  | > 10 | > 10 | > 10 | > 10 | > 10 | > 10 | > 10 | > 10 | > 10 |  |
| N=c1oc2ccc(Cl)cc2cc1C(N)=O | 69.1 | > 100 | > 100 | 45.1 |  | 61.7 | > 100 | > 100 | > 100 | > 100 | > 100 |  | > 100 | > 100 | > 100 | > 100 | 72.8 | > 100 | > 100 | > 100 |
| O=C(Nc1ncc([N+](=O)[O-])s1)c1ccccc1O | 99.4 | > 100 | > 100 | 77.7 | 46.5 | 46.4 | > 100 | > 84.5 | > 100 | > 100 | > 89.4 | > 100 |  | > 76.2 | > 100 | > 100 | > 94.7 | 7.98 | > 70.8 | > 100 |
| CC(=O)O[C@H]1C(=O)[C@@]2(C)C(C(OC(=O)c3ccccc3)[C@]3(O)CC(OC(=O)C(O)C(NC(=O)c4ccccc4)c4cccc(Cl)c4)C(C)=C1C3(C)C)[C@]1(OC(C)=O)CO[C@@H]1C[C@@H]2O (some centres not stated) | 3.46 | > 10 | > 10 | > 10 | > 10 | > 10 | 9.73 | > 10 | > 10 |  | 9.16 | > 10 | 4.88 | > 10 | > 10 | > 10 | > 10 |  | > 10 |  |
| COCOc1c(C(OCOC)c2cnc(Sc3ccccc3)n2C)ccc(OC)c1OC (configuration not stated) | > 100 | > 100 | > 100 | > 100 | > 100 | > 100 | > 100 | > 100 | > 100 | > 100 | > 100 | > 100 | > 100 | > 100 | > 100 | > 100 | > 100 | > 100 | > 100 |  |
| Cc1c(N=Nc2ccc(Cl)cc2)c(C)n(C2OC(CO)C(O)C(O)C2O)c(=S)c1C#N (configuration not stated) | 50.4 | > 100 | 37.4 | 41.8 | 83.5 | 29.1 | 38 | 55.5 | > 100 | 52.3 | > 100 | > 100 | 58.3 | > 100 | 87.4 | > 100 | 68.7 | 71.4 | 68 |  |
| COc1ccc2c(c1)CCc1c-2n(CCN2CCOCC2)c2ccc(OC)cc12 | > 100 | > 100 | > 100 | > 100 | > 100 | > 100 | > 100 | > 100 |  | > 100 | > 100 | > 100 |  | 53.6 | > 100 | > 100 | > 100 | > 100 | > 100 | > 100 |
| COc1ccc(/C=C2\CCc3cc(OC)c(OC)cc3C2=O)cc1 | > 10 | > 10 | > 10 | > 10 | > 10 | > 10 | > 10 | > 10 | > 10 | > 10 | > 10 | > 10 | > 10 | > 10 | > 10 | > 10 | > 10 | > 10 | > 10 |  |
| Cc1cccc(C)c1N1C(=O)C2c3[nH]c4ccccc4c3C3CCC(C(C)(C)C)CC3C2C1=O (configuration not stated) | 24.4 | > 100 | 42.6 | 21.8 | 51.9 | 21.3 | 37.5 | 33.7 | > 100 | 45.5 | 22.5 |  | 35.5 | 32 |  | 21 | 20.6 | 23.9 |  | 37.6 |
| O=C(N/N=C/c1ccc(Cl)cc1)c1ccccc1Nc1ccccc1C(=O)N/N=C/c1ccc(Cl)cc1 | > 100 | > 100 | > 100 | > 100 | > 100 | > 100 |  | > 100 | > 100 | > 100 | > 100 | > 100 |  | > 100 | > 100 | > 100 | > 100 | > 100 | > 100 | > 100 |
| CCCCc1ccc(Nc2nc(Cl)c3ncn(C4CC(Oc5ccc(C)cc5)C(COc5ccc(C)cc5)O4)c3n2)cc1 (configuration not stated) | > 100 | > 100 | > 100 | > 100 | > 100 | > 100 | > 100 | > 100 | > 100 |  | > 100 | > 100 | > 100 | > 100 |  | > 100 |  | > 100 | > 100 | > 100 |
| COc1ccc2nc3c([N+](=O)[O-])ccc(NCCN(C)C)c3c(NCCN(C)C)c2c1 | 3.13 | > 10 | 5.13 | 2.78 | 3.03 |  |  |  |  | 4.15 | > 10 | 1.84 | 3.02 | 4.51 |  | 3.25 | 2.02 | > 10 | 3.51 |  |
